Biological target: T1, SaCas9 (Staphylococcus aureus, UniProt J7RUA5)
T1 sequence (J7RUA5 1-1053): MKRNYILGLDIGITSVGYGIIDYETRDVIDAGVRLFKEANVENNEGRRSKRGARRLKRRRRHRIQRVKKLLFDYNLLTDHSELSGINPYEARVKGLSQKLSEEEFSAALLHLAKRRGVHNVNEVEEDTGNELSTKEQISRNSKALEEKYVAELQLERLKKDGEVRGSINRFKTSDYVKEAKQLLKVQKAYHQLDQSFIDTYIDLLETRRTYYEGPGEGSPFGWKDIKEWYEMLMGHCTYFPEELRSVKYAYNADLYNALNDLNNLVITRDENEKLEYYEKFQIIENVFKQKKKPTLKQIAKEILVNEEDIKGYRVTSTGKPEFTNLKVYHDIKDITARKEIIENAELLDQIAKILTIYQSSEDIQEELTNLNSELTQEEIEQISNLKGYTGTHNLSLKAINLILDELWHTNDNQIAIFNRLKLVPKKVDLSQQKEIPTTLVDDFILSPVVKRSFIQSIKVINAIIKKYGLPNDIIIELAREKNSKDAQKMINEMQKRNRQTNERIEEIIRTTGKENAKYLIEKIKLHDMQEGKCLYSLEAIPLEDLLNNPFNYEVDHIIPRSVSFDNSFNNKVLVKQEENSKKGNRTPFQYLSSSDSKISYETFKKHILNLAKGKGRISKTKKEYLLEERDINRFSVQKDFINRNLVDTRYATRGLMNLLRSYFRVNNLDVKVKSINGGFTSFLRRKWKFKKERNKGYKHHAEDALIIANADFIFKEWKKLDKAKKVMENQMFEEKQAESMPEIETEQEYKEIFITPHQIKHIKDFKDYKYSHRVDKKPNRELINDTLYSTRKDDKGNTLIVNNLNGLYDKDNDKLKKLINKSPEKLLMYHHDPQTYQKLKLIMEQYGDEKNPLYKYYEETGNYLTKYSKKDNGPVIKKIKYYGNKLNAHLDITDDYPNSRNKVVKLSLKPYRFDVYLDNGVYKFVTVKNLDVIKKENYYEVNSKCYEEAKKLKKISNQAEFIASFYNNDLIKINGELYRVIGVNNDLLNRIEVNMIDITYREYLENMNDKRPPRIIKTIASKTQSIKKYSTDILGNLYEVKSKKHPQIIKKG
Assay: Strand displacement assay, SaCas9 primary screen
Format: biochemical
Settings: for Auto Zscore Rep 1 / Auto Zscore Rep 2 / Normalized Zscore Rep 1 / Normalized Zscore Rep 2: SaCas9 primary screen; for Auto Zscore Rep 1 / Normalized Zscore Rep 1: replicate 1; for Auto Zscore Rep 2 / Normalized Zscore Rep 2: replicate 2; for Normalized Zscore Rep 1 / Normalized Zscore Rep 2: weaker potential hits; for 3 sigma Hit: flag 1 = hit at 3 sigma; for 5 sigma Hit: flag 1 = hit at 5 sigma
Experimental: An overview of the screening for SaCas9 inhibitors is depicted in FIG. 14. A total of 43,168 Compounds were screened from the ICCB Libraries. Libraries screened for the initial compounds include ChemDiv 7 (34,848 cpds), Enamine 1 (5,280 cpds), ChemDiv1 (1,760 cpds), NIH Clinical Collection (450 cpds), Biomol 4—FDA Approved Library (640 cpds). A hit is determined from the Zscore, with 3-5σ being a weak hit, >5σ being a strong hit. The results of the hits include 193 Weak Hits and 249 Strong Hits. The NIH Clinical Collection 1-2014 was screened for 450 of 450 compounds, with 7 hits—1.5%. The Biomol 4—FDA Approved Library was screened for 640 of 640 compounds, with 8 hits—1.2%. […] Enamine 1 was screened for 5,280 of 6,004 compounds, with 44 hits—0.83%. Libraries are commercially available, with reference numbers utilized for compounds identifying the compound structures used. […]
Generalization of CAA to other Cas nucleases. Applicants sought to generalize CAA to other CRISPR-associated nucleases, including from Staphylococcus aureus (SaCas9). Given the similarities between SaCas9 and SpCas9 modes of DNA-substrate binding and protein folding,^26, 27 Applicants hypothesized that SaCas9-induced strand displacement could be similarly measured. Indeed, fluorescence quenching correlated with substrate cleavage in the CAA assay with active SaCas9:gRNA and an ACGGGT PAM sequence, which was validated with gel electrophoresis (FIG. 62F,G and FIG. 69F).
First, Applicants optimized various components and conditions of the strand displacement assay for Cas enzyme activity and generality with different Cas such as SpCas9 (FIG. 62B) or SaCas9 (FIG. 69F) or FnCas12a (FIG. 70A,B). Typically, SpCas9: gRNA (1:1.2 ratio) RNP was pre-formed at 1 μM in Cas9 assay buffer (20 mM Tris-HCl, pH=7.5, 100 mM KCl, 5 mM MgCl2) for 5 min at 4° C. before diluting to 10 nM in Cas9 assay buffer (2× final concentration). 25 μL of the Cas9 2× stock was manually dispensed to a black 384-well plate (Corning 3575) using electronic pipette. Apo SpCas9 (without guide RNA) was used at the same concentration as a control for no activity (mock inhibition). Following this, pre-annealed Alexa-Fluor 647 labeled substrate and quencher were also diluted to 1 nM and 5 nM in Cas9 assay buffer, respectively (2× stock solution). Next, 25 μL of the substrate/quencher solution was added manually to each well of the Cas9-containing 384-well plates using an electronic pipette and was incubated at 37° C. for 2.5 h. Fluorescent signals were read with the microplate reader set to read Alexa-Fluor 647 fluorescence. Assay was performed similarly with SaCas9 and FnCas12a using the respective enzyme, gRNA, substrate, and quencher oligos. Applicants similarly divulged the effect of PAM sequences of dsDNA on its assay specificity using TGG, TGC, AAC PAM containing substrates for SpCas9 (FIG. 62C), and ACGGGT, ACGGTT, TGCCCA PAM substrate for SaCas9 (FIG. 62F) and TTTC, TTGC, AAAG PAM substrates for FnCpf1 (FIG. 63B-C). Applicants also optimized the effective concentration of DS-AF647 and SS-AF647 fluorophores (FIG. 64A), DS-substrate to SpCas9 RNP ratio (FIG. 64B) and substrate to quencher ratio (FIG. 64C) on assay performance. Similarly, Applicants performed a time course experiment to establish the time required for maximum completion of the reaction at various substrate to SpCas9 RNP ratios (FIG. 64D).

Row | Structure (SMILES) | Auto Zscore Rep 1 | Auto Zscore Rep 2 | Normalized Zscore Rep 1 | Normalized Zscore Rep 2 | 3 sigma Hit | 5 sigma Hit
1 | Cc1noc2c1C(c1ccc(O)c(O)c1)C1=C(CC(c3ccccc3)CC1=O)N2 (centres unmarked) [Cpd D588-0186] | 0.2858 | −0.8337 | 0.2526 | 0.3021 | 1 | 1
2 | Cc1noc2c1C(c1ccc(O)c(O)c1)C1=C(CC(c3ccc(O)cc3)CC1=O)N2 (centres unmarked) [Cpd D588-0188] | 0.6685 | 0.2374 | 0.2133 | 0.2195 | 1 | 1
3 | CCOc1ccc(NC(=O)c2oc3cc(C)ccc3c2C)c2cccnc12 [Cpd D656-0040] | −0.413 | −1.287 | 0.4389 | 0.3581 | 1 | 1
4 | Cc1cccc(Nc2nc(C(N)=O)c(NC(=O)c3ccc(F)cc3)s2)c1C [Cpd D686-0236] | 2.51 | 1.919 | 0.2077 | 0.4936 | 1 | 
5 | O=c1oc2c(O)c(O)ccc2c2c1CCC2 [Cpd D715-0012] | −0.8066 | −0.8068 | 0.4402 | 0.5823 | 1 | 1
6 | O=c1ccc2ccc(OCc3nnn[nH]3)cc2o1 [Cpd D715-0997] | 1.322 | 0.6629 | 0.2335 | 0.4628 | 1 | 
7 | O=c1oc2cc(OCc3nnn[nH]3)c(Cl)cc2c2c1CCC2 [Cpd D715-1040] | 0.03234 | 2.456 | 0.2698 | 0.4064 | 1 | 1
8 | Cc1ccc(OCc2nn3c(-c4ccoc4C)nnc3s2)cc1 [Cpd D727-0112] | −0.1513 | −0.2297 | 0.2865 | 0.3127 | 1 | 1
9 | Cc1ccc(OCc2nn3c(-c4ccoc4C)nnc3s2)cc1C [Cpd D727-0113] | 1.744 | −0.999 | 0.1802 | 0.1627 | 1 | 
10 | Cc1occc1-c1nnc2sc(COc3ccc(Br)cc3)nn12 [Cpd D727-0114] | 1.154 | −0.6566 | 0.2766 | 0.2635 | 1 | 1
11 | Fc1ccc(-c2nn3c(CSc4ccccc4)nnc3s2)cc1 [Cpd D727-0190] | 0.8466 | −0.6764 | 0.2272 | 0.2685 | 1 | 1
12 | COCCc1nnc2n1N=C(c1ccc(Cl)cc1)CS2 [Cpd D727-0342] | −0.6224 | 1.036 | 0.1633 | 0.1771 | 1 | 
13 | c1ccc(-c2nnc3sc(-c4ccncc4)nn23)nc1 [Cpd D727-0542] | −0.3775 | 1.249 | 0.1921 | 0.2295 | 1 | 1
14 | Cc1cc(-c2nn3c(C(C)C)nnc3s2)no1 [Cpd D727-0612] | −0.2589 | −0.2694 | 0.1368 | 0.1972 | 1 | 
15 | Cc1cc(-c2nn3c(COc4ccccc4)nnc3s2)no1 [Cpd D727-0624] | 1.24 | 0.8474 | 0.2151 | 0.2232 | 1 | 1
16 | Cc1cc(-c2nnc3sc(COc4ccccc4Cl)nn23)[nH]n1 [Cpd D727-0910] | 0.8719 | 0.05327 | 0.2028 | 0.2126 | 1 | 
17 | CC1(C)CC(=O)C2=C(C1)Nc1onc(C(C)(C)C)c1C2c1ccc(O)c(O)c1 (centres unmarked) [Cpd D733-0293] | −1.043 | 2.015 | 0.4191 | 0.3634 | 1 | 1
18 | CN1C(C(=O)Nc2sc3c(c2C(N)=O)CCCC3)=CC(c2ccc(F)cc2)=NS1(=O)=O [Cpd E135-0568] | 0.3653 | −0.5622 | 0.1731 | 0.1458 | 1 | 
19 | CC1CCC(NC(=O)C2(C)Cn3c(cc4occc43)C(=O)N2CCN(C)C2CCCCC2)CC1 (centres unmarked) [Cpd E218-0425] | −0.4666 | 0.1007 | 0.2235 | 0.1821 | 1 | 
20 | CC1(C(=O)NC2CCCCC2)Cn2c(cc3ccccc32)C(=O)N1c1ccc2c(c1)OCCO2 (centres unmarked) [Cpd E234-0056] | 1.418 | 1.057 | 0.2592 | 0.1597 | 1 | 
21 | Cc1sc2c(c1C)CSC(C(=O)Nc1c(C)n(C)n(-c3ccccc3)c1=O)=C2 [Cpd E722-1395] | −0.03529 | 0.492 | 0.2255 | 0.1818 | 1 | 
